Results from patent publication US20240382497A1, “PROPHYLACTIC OR THERAPEUTIC AGENT FOR HYPOXIC INJURY, ISCHAEMIA-REPERFUSION INJURY AND INFLAMMATION, CELL PROTECTION AGENT FOR TRANSPLANTATION, AND BIO-PRESERVATION AGENT” (priority 2018, published 2024).

Key:
male C57/BL6N mouse = experiment: Survival time in 4% oxygen after Trpa1 agonist i.p.; format: in vivo; conditions: wild-type mouse; i.p. Δ9-THC 10 mg/kg, AITC 40 mg/kg, APAP 300 mg/kg; 30 min before 4% oxygen; versus saline
Experimental: (§1) Saline or known Trpa1 agonists Δ9-tetrahydrocannabinol (Δ^9-THC; 10 mg/kg), allyl isothiocyanate (AITC; 40 mg/kg), or acetaminophen (APAP; 300 mg/kg) was intraperitoneally administered to male C57/BL6N mouse (about 3-month-old) and, 30 min later, the mouse was placed in a tight box with adjusted oxygen concentration of 4%, and the survival time of the mouse was measured for 30 min at maximum. As to APAP, the survival time in 4% oxygen environment was also measured using male Trpa1 knockout and littermate hetero mice (about 3-to 6-month-old).

C57/BL6N male mice [1] = experiment: Survival time in 4% oxygen after intraperitoneal administration; format: in vivo, mouse; conditions: Example 12, about 80 mg/kg i.p., 30 min before 4% oxygen, Kaplan-Meier, versus saline
Experimental: Influence of intraperitoneal administration of various kinds of heterocyclic compounds on the survival time of mouse under hypoxic environment was analyzed. The odor molecule was administered by a method of intraperitoneally injecting 200 μl (about 80 mg/kg, i.p.) of a solution diluted 100 times with saline and, 30 min later, the mice were placed in a tight box with adjusted oxygen concentration of 4%, and the survival time of the mouse was measured for 30 min at maximum. As a control, the survival time of the mice intraperitoneally injected with saline (control) was measured.
By a method similar to that in Example 10, influence of intraperitoneal administration of various isothiocyanate compounds (about 80 mg/kg, i.p.) on the survival time of mouse under hypoxic environment was analyzed.
About 3-month-old C57/BL6N male mice were intraperitoneally injected with 200 μl (about 80 mg/kg, i.p.) of a thiomorpholine solution diluted 100 times with saline and, 30 min later, the mice were placed in a tight box with adjusted oxygen concentration of 4%, and the survival time of the mouse was measured. As a control, the survival time of the mice intraperitoneally injected with saline was measured.

mice = experiment: Oxygen consumption after intraperitoneal injection; format: in vivo, mouse; conditions: versus saline
Experimental: An influence of a thiazoline-related compound on the oxygen consumption was analyzed. The oxygen consumption was analyzed using an energy metabolism measurement device for small animals (ARCO-2000; ARCO SYSTEM). About 3-month-old C57/BL6N male mice were each placed in a measuring chamber and, after acclimation for about 2 hr, a thiazoline-related compound (2MT) was presented. The odors were presented by placing filter papers scented with 100 μl (104 mmol) of odor molecules in the measuring chamber. As a control, an experiment in which a filter paper dropped with saline was presented to the mice was also performed. The oxygen consumption was measured every one min. Mean oxygen consumption was calculated as the mean of 10 min before presenting odor and 20 min after presenting odor.
Changes in the oxygen consumption induced by intraperitoneal injection of heterocyclic compounds (2MT and Thiomorpholine (TMO) were measured by a method similar to that in Example 8.

[2] = tested on: wild-type and Trpa1 knockout mice; experiment: Survival time in 4% oxygen, thiomorpholine i.p., wild-type and Trpa1 knockout mice; format: in vivo, mouse; conditions: about 80 mg/kg i.p.
Experimental: A heterocyclic compound (thiomorpholine) (200 μl, about 80 mg/kg) diluted 100 times with saline was intraperitoneally injected to male wild-type and Trpa1 knockout mice (about 3 to 6-month-old) and, 30 min later, the mice were placed in a tight box in which the oxygen concentration was adjusted to 4%, and the survival time of the mice was measured.

[3] = Yu et al., Cell Physiol Biochem 36: 1539-1551, 2015; cited from earlier work
C57/BL6N male mice [4] = experiment: Survival time in 4% oxygen after intraperitoneal NaHS or 2-methylthiophene; format: in vivo, mouse; conditions: 200 μl i.p. of 1% solution; all individuals; observation time of 30 min
Experimental: Thus, the survival time was measured at the remaining three concentrations. As a control, the survival time of the mice intraperitoneally injected with saline or 2-methylthiophene (1% solution) in 4% oxygen was measured.

[5] = tested on: Trpa1 knockout and littermate hetero mice; experiment: Survival time in 4% oxygen after APAP i.p., Trpa1 knockout and hetero mice; format: in vivo, mouse; conditions: 300 mg/kg i.p., versus saline
Experimental: as §1

TNF-α = experiment: Blood TNF-α after LPS and 4E2MT, Trpa1 knockout and control mice; format: in vivo, mouse; conditions: 1 hr after simultaneous i.p. administration with LPS
Experimental: Lipopolysaccharide (LPS) (0.6 mg/kg) was intraperitoneally administered to male Balb/c mice (about 2-3 months old) to generate a sepsis model. Immediately after the LPS administration, 200 μl (about 80 mg/kg) of a solution prepared by diluting various heterocyclic compounds and isothiocyanate compounds 100 times with saline was intraperitoneally administered. Blood samples were collected 60 min after LPS and compound administration, EDTA plasma was prepared, and the blood level of inflammatory cytokine TNF-a was measured by the ELISA method.
Changes in the body surface temperature, survival time under a hypoxic environment, and TNF-α production in blood by LPS administration induced by intraperitoneally administration of thiazoline-related compound (4-ethyl-2-methyl-2-thiazoline; 4E2MT) measured by a method similar to those in Example 3, Example 10, or Example 18.

Structure (SMILES): CCCCCc1cc(O)c2c(c1)OC(C)(C)[C@@H]1CCC(C)=C[C@@H]21 [49-THC, Δ9-tetrahydrocannabinol]
- survival time in 4% oxygen (male C57/BL6N mouse): extending the survival time

Structure (SMILES): C1CSCCN1 [thiomorpholine]
- survival time in 4% oxygen (hypoxia resistance) (C57/BL6N male mice [1]): produces hypoxia resistance
- oxygen consumption (mice): suppress the oxygen consumption
- survival time in 4% oxygen ([2]; Trpa1 knockout mice (Trpa1−/−), compared with wild-type mouse): survival time significantly decreased
- survival time in 4% oxygen ([2]; wild-type mice (Trpa1+/+)): significantly prolonging the survival time

Structure (SMILES): [Na+].[SH-] [NaHS]
- protective effects in ischemia-reperfusion injury [3]: protective effects in ischemia-reperfusion injury

Structure (SMILES): Cc1cccs1 [2-methylthiophene]
- survival time in 4% oxygen (C57/BL6N male mice [4]): ≥ 30 min

Structure (SMILES): CC(=O)Nc1ccc(O)cc1 [APAP, acetaminophen]
- survival time in 4% oxygen (male C57/BL6N mouse): extending the survival time
- survival time in 4% oxygen ([5]; Trpa1 knockout mice (Trpa1−/−)): such effect was not observed
- survival time in 4% oxygen ([5]; control mice (Trpa1+/−)): extending the survival time

Structure (SMILES): CCC1CSC(C)=N1 (stereo not drawn) [4E2MT, 4-ethyl-2-methyl-2-thiazoline]
- amount of TNF-α in blood (decreasing effect) (TNF-α): this effect was suppressed

Structure (SMILES): C=CCN=C=S [AITC, allyl isothiocyanate]
- survival time in 4% oxygen (male C57/BL6N mouse): extending the survival time
